Assay [1] relates to rat carrageenan paw edema. Description: rat carrageenan paw edema assay. As to conditions: for ED50: Rattus norvegicus, po, 3 h, read-out: Oral ED50 (95% C.L.); for % Inhibition of edema at 50 mg/kg (peroral): 1 hour prior to carrageenan, edema at 3 hours. Format: in vivo, rat (male Sprague-Dawley). As to the method:
The compounds of the invention are tested in the rat carrageenan paw edema assay to determine their ability to inhibit the acute inflammatory response. This assay is carried out as follows: 140-180 gm male Sprague-Dawley rats, in groups of 6 animals, are injected subcutaneously in the right paw with 0.1 ml of 1% carrageenan at zero time. Mercury plethysmographic readings (ml) of the paw are made at zero time and 3 hours later. Test compounds are suspended or dissolved in 0.5% methylcellulose and given perorally 1 hour prior to carrageenan administration. The increase in paw volume (edema in ml.) produced by the carrageenan is measured. […] Unpaired Student's t-test is used to determine statistical significance.

In assay [2] the test system is IL 1-induced release of neutral protease from rabbit articular chondrocytes. Description: inhibition of IL 1-induced release of neutral protease from rabbit articular chondrocytes (azocoll neutral protease assay). The class given is cell-based. As to conditions: Oryctolagus cuniculus, Chondrocyte, human IL 1, 24 h, ± S.D., read-out: % Inhibition of Protease Secretion. As to the method: The ability of the compounds of the inventions to inhibit interleukin 1 is measured by the ability of the test compounds to inhibit the IL 1-induced release of neutral protease from rabbit articular chondrocytes.
This assay is carried out as follows:
Isolation of rabbit chondrocytes:
Male New Zealand White rabbits are anesthetized with 50 mg/kg of ketamine (i.m.) and killed by an intracardiac injection of 3 mls. of Nembutal. The knee joints of both legs are resected and the articular surfaces are exposed. Cartilage slices are obtained using a scalpel and are placed in a tissue culture dish (100 mm diameter) containing 10 mls of Hank's balanced salt solution (HBSS). The chondrocytes within the cartilage slices are then liberated by a series of enzyme digestions. The slices are incubated for 10 min. at 37° C. in 0.05% hyaluronidase (Sigma H-3884), rinsed with HBSS and incubated with 0.2% trypsin (Sigma T-2395) for 10 min. at 37° C. The slices are rinsed again and incubated for 10 mins. at 37° C. with 1.2% collagenase (Sigma C-5138). The slices are then rinsed again with HBSS and resuspended in 10 ml of Ham's F-12 medium containing 10% fetal bovine calf serum (FCS) and 0.2 % collagenase and incubated overnight at 37° C. in a 5% CO2 incubator. The next day, the medium containing the digested cartilage fragments and liberated chondrocytes is transferred to a 15 ml centrifuge tube and the cells are collected by centrifugation and washed twice and resuspended in Ham's F-12 medium. The cells are then plated into 24-well tissue culture plates (2×10^5 cells/well) and incubated at 37° C. until confluent (usually 4-6 days).
Stimulation of chondrocytes and drug treatment:
The confluent chondrocytes are rinsed twice with serum-free Ham's F-12 medium and 1 ml is added to each well. Fifty μl of purified human IL 1 (100 Units/ml; Genzyme Corporation, Boston, MA) is then added to stimulate these cells to secrete neutral protease. To measure drug effects, the cells are treated with test compound 10 min. prior to addition of IL 1. The standard screening dose is 10 μM. Twenty-four hours after IL 1 stimulation, supernatant fluids are collected and assayed for neutral protease activity.
The neutral protease activity of chondrocyte supernatant fluids is determined by their ability to degrade an insoluble protease substrate, azocoll (Sigma). Supernatants are treated for 10 min. at room temperature with 350 μM p-aminophenylmurcuric acetate to activate the latent enzyme. Three hundred μl of supernatant is then mixed with 500 μl of a 20 mg/ml suspension of azocoll and incubated at 37° C. for 18-24 hrs. with gentle rocking. The mixtures are centrifuged and the amount of substrate hydrolyzed is determined by measuring the absorbance of the supernatant at 520 nm.
Drug effects are calculated as the % change in enzyme activity (absorbance)by supernatants from drug-treated chondrocytes relative to enzyme activity of supernatants from vehicle-treated chondrocytes as follows:
% Inhibition of Protease Secretion= [formula]

Results on 14 molecules are retold here after patent US4748246A, “Pyrazolo(4,3-c)quinolines” (American Home Products Corporation, priority 1987, dated 1988).

The structures appear in SMILES notation.

Usually ED50 stands for the midpoint of the dose-response relation. As for `CC(=O)Oc1ccccc1C(=O)O` [Aspirin, reference compound], the ED50 in assay [1] was 145 mg/kg.
Usually inhibition stands for the percentage by which the read-out fell short of the control. Regarding `N#Cc1ccc(NCCc2nc3cc(Cl)ccc3c3nn(-c4ccccc4)cc23)cc1` [Example 1, 4-[[2-(7-Chloro-2-phenyl-2H-pyrazolo-[4,3-c]quinolin-4-yl)ethyl]amino]benzonitrile], the “% Inhibition of edema at 50 mg/kg (peroral)” value in assay [1] is on record as 38%. Also, in assay [2], the inhibition at 0.1 µM was found to be 60 ± 13%, the inhibition at 1 µM was 75 ± 5% and the inhibition at 10 µM is 88 ± 2%.
Turning to `CCOC(=O)c1ccc(NCCc2nc3cc(Cl)ccc3c3nn(-c4ccccc4)cc23)cc1` [Example 2, 4-[[2-(7-Chloro-2-phenyl-2H-pyrazolo[4,3-c]quinolin-4-yl)ethyl]amino]benzoic acid ethyl ester], the “% Inhibition of edema at 50 mg/kg (peroral)” value in assay [1] is given as 32%. In assay [2], the inhibition at 0.1 µM was determined as 41 ± 10%, the inhibition at 1 µM was found to be 70 ± 4% and the inhibition at 10 µM was 85 ± 3%.
Regarding `Clc1ccc2c(c1)nc(CCNc1ncccn1)c1cn(-c3ccccc3)nc12` [Example 3, 7-Chloro-2-phenyl-N-(2-pyrimidinyl)-2H-pyrazolo[4,3-c]quinoline-4-ethanamine], in assay [2], the inhibition at 1 µM was determined as 22% and the inhibition at 10 µM came out at 79 ± 29%.
For the molecule `Clc1ccc2c(c1)nc(CCNc1ccc3ccccc3n1)c1cn(-c3ccccc3)nc12` [Example 4, 7-Chloro-2-phenyl-N-(2-quinolinyl)-2H-pyrazolo[4,3-c]quinoline-4-ethanamine], the inhibition at 10 µM in assay [2] was not above 20%.
Still for that read-out and setting: under `Fc1ccc(NCCc2nc3cc(Cl)ccc3c3nn(-c4ccccc4)cc23)cc1` [Example 5, 7-Chloro-N-(4-fluorophenyl)-2-phenyl-2H-pyrazolo[4,3-c]quinoline-4-ethanamine] stands 14%; under `Clc1ccc2c(c1)nc(CCNc1cnccn1)c1cn(-c3ccccc3)nc12` [Example 6, 7-Chloro-2-phenyl-N-(2-pyrazinyl)-2H-pyrazolo-[4,3-c]quinoline-4-ethanamine, hemihydrate], 60%; under `CCOC(=O)c1ccc(NCCc2nc3ccccc3c3nn(-c4ccccc4)cc23)cc1` [Example 7, 4-[[2-(2-phenyl-2H-pyrazolo[4,3-c]quinolin-4-yl)ethyl]amino]benzoic acid ethyl ester], 83%.
For `N#Cc1ccc(N(CCc2nc3cc(Cl)ccc3c3nn(-c4ccccc4)cc23)C(=O)Nc2ccccc2)cc1` [Example 8, N-[2-(7-chloro-2-phenyl-2H-pyrazolo[4,3-c]quinolin-4-yl)ethyl]-N-(4-cyanophenyl)-N'-phenylurea], in assay [2], the inhibition at 10 µM is not above 20%.
Take `CCOC(=O)c1ccc(N(CCc2nc3cc(Cl)ccc3c3nn(-c4ccccc4)cc23)C(=O)Nc2ccccc2)cc1` [Example 9]: the inhibition at 10 µM in assay [2] was found to be 49%.
As for `N#Cc1ccc(N(CCc2nc3cc(Cl)ccc3c3nn(-c4ccccc4)cc23)C(=O)Nc2ccc(Cl)cc2)cc1` [Example 10, N'-(4-Chlorophenyl)-N-[2-(7-chloro-2-phenyl-2H-pyrazolo[4,3-c]quinolin-4-yl)ethyl]-N-(4-cyanophenyl)urea], the inhibition at 10 µM in assay [2] came to 51%.
On to `CCOC(=O)c1ccc(N(CCc2nc3cc(Cl)ccc3c3nn(-c4ccccc4)cc23)C(=O)Nc2ccc(Cl)cc2)cc1` [Example 11, 4-[[[(4-chlorophenyl)amino]carbonyl][2-(7-chloro-2-phenyl-2H-pyrazolo[4,3-c]quinolin-4-yl)ethyl]amino]benzoic acid ethyl ester, hydrate], for which the inhibition at 10 µM in assay [2] stood at 47%.
On the same count and under the same terms, under `CS(=O)(=O)c1ccc(NCCc2nc3cc(Cl)ccc3c3nn(-c4ccccc4)cc23)cc1` [Example 12, 7-Chloro-N-[(4-methylsulfonyl)phenyl]-2-phenyl-2H-pyrazolo[4,3-c]quinoline-4-ethanamine] stands 41%.
Regarding `COc1ccc2c(c1)c(CC(=O)O)c(C)n2C(=O)c1ccc(Cl)cc1` [Indomethacin, reference compound], the 50% effective dose (ED50) in assay [1] amounted to 3.7 mg/kg.
